In patent US12187773B2, “Modified GIP peptide analogues” (Antag Therapeutics ApS, priority 2018, dated 2025):
*1 amine or outer side, *2 acyl side, *3 side chain or, on linkers, in order; H or OH if unused. Where a SMILES comes first, the peptide text is derived from it. Side-chain parts run from the residue outwards. [ ]: non-standard residue; d: D form. The star is where a group is joined. C18 diacid = O=C(O)CCCCCCCCCCCCCCCCC(=O)*; C16 diacid = O=C(O)CCCCCCCCCCCCCCC(=O)*; γGlu = O=C(O)[C@H](CCC(=O)[*:2])N[*:1]; pGlu = O=C1CC[C@@H](C(=O)O)N1; AEEA = NCCOCCOCC(=O)O

What was measured:
Assay type in all cases: cell-based
human GIP receptor [1] = target: T1, human GIP receptor (Homo sapiens, UniProt P48546); test: cAMP antagonism (CisBio cAMP Dynamic 2 HTRF assay); set-up: pCMV-Script vector
T1 sequence (P48546 22-466): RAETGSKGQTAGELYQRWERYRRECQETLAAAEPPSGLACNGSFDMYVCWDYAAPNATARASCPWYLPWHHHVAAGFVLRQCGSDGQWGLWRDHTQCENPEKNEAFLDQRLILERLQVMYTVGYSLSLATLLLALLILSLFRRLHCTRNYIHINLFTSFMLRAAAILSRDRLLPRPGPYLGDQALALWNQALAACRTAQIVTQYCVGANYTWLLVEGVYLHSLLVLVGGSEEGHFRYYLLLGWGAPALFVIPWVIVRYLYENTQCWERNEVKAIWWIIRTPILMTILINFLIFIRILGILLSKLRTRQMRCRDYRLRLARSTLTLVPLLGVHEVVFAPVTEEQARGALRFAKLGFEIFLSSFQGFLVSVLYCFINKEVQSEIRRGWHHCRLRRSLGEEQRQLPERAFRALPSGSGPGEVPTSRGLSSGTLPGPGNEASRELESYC
Procedure, shortened: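 Four-parameter fits of cAMP dose-response gave pIC50. cAMP fall was quantified by HTRF competition, ratio 665/620 nm after 60 min at room temperature, against a cAMP standard curve.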

secretin receptor (SCTR) = target: T2, secretin receptor (SCTR) (Homo sapiens, UniProt P47872); test: cAMP assay - selectivity, antagonism at secretin receptor; details: Table 3B; COS-7 cells; agonist secretin
T2 construct: expressed in transfected cells; host or cells: COS-7 (transient)
Protocol: (§1) Transient transfected COS-7 cells expressing the either of the GLP1 receptor (GLP1R), GLP2 receptor (GLP2R), glucagon receptor (GcgR) or secretin receptor (SCTR) were seeded in white 96-well plates with a density of 3.5*10^4/well. The day after, the cells were washed twice with Hepes buffered saline (HBS) buffer and incubated with HBS and 1 mM 3-isobutyl-1-methylxanthine (IBMX) for 30 min at 37° C. To test for agonistic properties, ligands were added and incubated for 30 min at 37° C. In order to test for antagonistic properties, the cells were preincubated with the antagonists for 10 min prior to the addition the natural agonist for the expressed receptor (GLP1 for GLP1R expressing cells, GLP2 for GLP2R expressing cells, glucagon for the GcgR and secretin for the SCTR) and subsequent incubated for 20 additional min. […] The HitHunter™ cAMP XS assay (DiscoveRx) was carried out according to the manufacturer's instructions.

human GIP receptor [2] = target: T1, human GIP receptor; test: cAMP accumulation, agonism (DiscoveRx HitHunter cAMP XS assay); set-up: host or cells: COS-7 (transient, calcium phosphate; pCMV-Script vector); details: Table 1B; DiscoveRx; COS-7 cells
Procedure, shortened: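 cAMP accumulation measured by HitHunter cAMP XS in COS-7 cells transiently expressing human GIP receptor, after 30 min in HBS with 1 mM IBMX at 37 °C. Antagonists preincubated 10 min before GIP giving 50-80% of maximum, then 20 min more; agonist mode used 30 min ligand exposure.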

GLP2 receptor (GLP2R) = target: T3, GLP2 receptor (GLP2R) (Homo sapiens, UniProt O95838); test: cAMP assay - selectivity, antagonism at GLP2 receptor; details: Table 3B; COS-7 cells; agonist GLP2
T3 construct: expressed in transfected cells; host or cells: COS-7 (transient)
T3 sequence (O95838 1-553): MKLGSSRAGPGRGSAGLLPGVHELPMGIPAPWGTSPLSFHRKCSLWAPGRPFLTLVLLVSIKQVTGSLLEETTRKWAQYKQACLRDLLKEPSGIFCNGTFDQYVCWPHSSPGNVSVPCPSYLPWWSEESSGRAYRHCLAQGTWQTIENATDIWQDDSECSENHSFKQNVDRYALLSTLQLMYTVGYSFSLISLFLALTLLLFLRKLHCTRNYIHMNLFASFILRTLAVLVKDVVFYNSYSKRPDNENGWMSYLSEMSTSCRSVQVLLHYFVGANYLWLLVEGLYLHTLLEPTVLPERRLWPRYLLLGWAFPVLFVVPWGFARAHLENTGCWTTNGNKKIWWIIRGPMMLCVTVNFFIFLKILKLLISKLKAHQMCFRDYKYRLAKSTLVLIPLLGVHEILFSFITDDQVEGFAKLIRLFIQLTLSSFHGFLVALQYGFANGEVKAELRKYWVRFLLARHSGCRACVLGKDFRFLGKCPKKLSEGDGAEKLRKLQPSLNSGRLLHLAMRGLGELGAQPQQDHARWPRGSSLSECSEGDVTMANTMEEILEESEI
Protocol: as §1

[3] = GIPR, Antagonism, nM, Table 3C, CisBio assay
[4] = Table 1C, CisBio, HEK-293 cells
[5] = cAMP antagonism, nM (IC50), Table 1C, CisBio, HEK-293 cells, agonist GIP1-42 at EC50

T2 sequence (P47872 23-440, species assumed): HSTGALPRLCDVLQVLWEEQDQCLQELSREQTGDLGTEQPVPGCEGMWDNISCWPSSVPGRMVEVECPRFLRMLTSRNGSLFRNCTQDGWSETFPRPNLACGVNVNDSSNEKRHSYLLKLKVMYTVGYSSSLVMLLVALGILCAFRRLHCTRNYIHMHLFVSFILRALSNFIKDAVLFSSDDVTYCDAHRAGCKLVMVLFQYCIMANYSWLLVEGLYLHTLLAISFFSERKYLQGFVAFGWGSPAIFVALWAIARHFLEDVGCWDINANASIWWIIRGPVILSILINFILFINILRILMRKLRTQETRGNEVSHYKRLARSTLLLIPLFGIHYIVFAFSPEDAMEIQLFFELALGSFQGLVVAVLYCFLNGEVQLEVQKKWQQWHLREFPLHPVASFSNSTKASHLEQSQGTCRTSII

Row | SMILES | IC50 (human GIP receptor [1]; [3]) [nM] | cAMP antagonism, % inhib (human GIP receptor [1]; [4]) [%] | GIPR, Antagonism, % inhib (human GIP receptor [1]; Table 3C, CisBio assay) [%] | IC50 (human GIP receptor [1]; [5]) [nM] | Secretin R, Antagonism (secretin receptor (SCTR)) | cAMP agonism, Emax (human GIP receptor [2]) | GLP-2R, Antagonism (GLP2 receptor (GLP2R))
1 | CC[C@H](C)[C@H](NC(=O)[C@H](CO)NC(=O)[C@H](Cc1ccc(O)cc1)NC(=O)[C@H](CC(=O)O)NC(=O)[C@H](CO)NC(=O)[C@@H](NC(=O)[C@H](Cc1ccccc1)NC(=O)[C@@H](NC(=O)CNC(=O)[C@@H]1CCC(=O)N1)[C@@H](C)O)[C@@H](C)CC)C(=O)N[C@@H](C)C(=O)N[C@@H](CCSC)C(=O)N[C@@H](CC(=O)O)C(=O)N[C@@H](CCCNC(=N)N)C(=O)N[C@H](C(=O)N[C@@H](CCCCNC(=O)COCCOCCNC(=O)COCCOCCNC(=O)COCCOCCNC(=O)CC[C@H](NC(=O)CCCCCCCCCCCCCCCCC(=O)O)C(=O)O)C(=O)N[C@@H](CCC(N)=O)C(=O)N[C@@H](CCC(N)=O)C(=O)N[C@@H](CC(=O)O)C(=O)N[C@@H](Cc1ccccc1)C(=O)N[C@H](C(=O)N[C@@H](CC(N)=O)C(=O)N[C@@H](Cc1c[nH]c2ccccc12)C(=O)N[C@@H](CC(C)C)C(=O)N[C@@H](CC(C)C)C(=O)N[C@@H](C)C(=O)N[C@@H](CCC(N)=O)C(=O)N[C@@H](CCCNC(=N)N)C(N)=O)C(C)C)[C@@H](C)CC [AT382] ([pGlu]GTFISDYSIAMDRIK([AEEA-AEEA-AEEA-γGlu-C18 diacid])QQDFVNWLLAQR-NH2) | 25.1 | 83 | 83 | 25.1 | No antagonism | No Agonism | No antagonism
2 | CC[C@H](C)[C@H](NC(=O)[C@H](CO)NC(=O)[C@H](Cc1ccc(O)cc1)NC(=O)[C@H](CC(=O)O)NC(=O)[C@H](CO)NC(=O)[C@@H](NC(=O)[C@H](Cc1ccccc1)NC(=O)[C@@H](NC(=O)CNC(=O)[C@@H](N)CO)[C@@H](C)O)[C@@H](C)CC)C(=O)N[C@@H](C)C(=O)N[C@@H](CCSC)C(=O)N[C@@H](CC(=O)O)C(=O)N[C@@H](CCCNC(=N)N)C(=O)N[C@H](C(=O)N[C@@H](CCCCNC(=O)COCCOCCNC(=O)COCCOCCNC(=O)COCCOCCNC(=O)CC[C@H](NC(=O)CCCCCCCCCCCCCCC(=O)O)C(=O)O)C(=O)N[C@@H](CCC(N)=O)C(=O)N[C@@H](CCC(N)=O)C(=O)N[C@@H](CC(=O)O)C(=O)N[C@@H](Cc1ccccc1)C(=O)N[C@H](C(=O)N[C@@H](CC(N)=O)C(=O)N[C@@H](Cc1c[nH]c2ccccc12)C(=O)N[C@@H](CC(C)C)C(=O)N[C@@H](CC(C)C)C(=O)N[C@@H](C)C(=O)N[C@@H](CCC(N)=O)C(=O)N[C@@H](CCCNC(=N)N)C(N)=O)C(C)C)[C@@H](C)CC [AT383] (H-SGTFISDYSIAMDRIK([AEEA-AEEA-AEEA-γGlu-C16 diacid])QQDFVNWLLAQR-NH2; N-terminus assumed) | 12.6 | 89 | 89 | 12.6 | No antagonism | No Agonism | No antagonism
3 | CC[C@H](C)[C@H](NC(=O)[C@H](CO)NC(=O)[C@H](Cc1ccc(O)cc1)NC(=O)[C@H](CC(=O)O)NC(=O)[C@H](CO)NC(=O)[C@@H](NC(=O)[C@H](Cc1ccccc1)NC(=O)[C@@H](NC(=O)CNC(=O)[C@@H](N)CO)[C@@H](C)O)[C@@H](C)CC)C(=O)N[C@@H](C)C(=O)N[C@@H](CCSC)C(=O)N[C@@H](CC(=O)O)C(=O)N[C@@H](CCCNC(=N)N)C(=O)N[C@H](C(=O)N[C@@H](CCCCNC(=O)COCCOCCNC(=O)COCCOCCNC(=O)CC[C@H](NC(=O)CCCCCCCCCCCCCCCCC(=O)O)C(=O)O)C(=O)N[C@@H](CCC(N)=O)C(=O)N[C@@H](CCC(N)=O)C(=O)N[C@@H](CC(=O)O)C(=O)N[C@@H](Cc1ccccc1)C(=O)N[C@H](C(=O)N[C@@H](CC(N)=O)C(=O)N[C@@H](Cc1c[nH]c2ccccc12)C(=O)N[C@@H](CC(C)C)C(=O)N[C@@H](CC(C)C)C(=O)N[C@@H](C)C(=O)N[C@@H](CCC(N)=O)C(=O)N[C@@H](CCCNC(=N)N)C(N)=O)C(C)C)[C@@H](C)CC [AT384] (H-SGTFISDYSIAMDRIK([AEEA-AEEA-γGlu-C18 diacid])QQDFVNWLLAQR-NH2; N-terminus assumed) | 54.1 | 97 | 97 | 54.1 | No antagonism | No Agonism | No antagonism
4 | CC[C@H](C)[C@H](NC(=O)[C@H](CO)NC(=O)[C@H](Cc1ccc(O)cc1)NC(=O)[C@H](CC(=O)O)NC(=O)[C@H](CO)NC(=O)[C@@H](NC(=O)[C@H](Cc1ccccc1)NC(=O)[C@@H](NC(=O)CNC(=O)[C@@H](N)CO)[C@@H](C)O)[C@@H](C)CC)C(=O)N[C@@H](C)C(=O)N[C@@H](CCSC)C(=O)N[C@@H](CC(=O)O)C(=O)N[C@@H](CCCNC(=N)N)C(=O)N[C@H](C(=O)N[C@@H](CCCCNC(=O)COCCOCCNC(=O)COCCOCCNC(=O)COCCOCCNC(=O)CC[C@H](NC(=O)CCCCCCCCCCCCCCCCC(=O)O)C(=O)O)C(=O)N[C@@H](CCC(N)=O)C(=O)N[C@@H](CCC(N)=O)C(=O)N[C@@H](CC(=O)O)C(=O)N[C@@H](Cc1ccccc1)C(=O)N[C@H](C(=O)N[C@@H](CC(N)=O)C(=O)N[C@@H](Cc1c[nH]c2ccccc12)C(=O)N[C@@H](CC(C)C)C(=O)N[C@@H](CC(C)C)C(=O)N[C@@H](C)C(=O)N[C@@H](CCC(N)=O)C(=O)N[C@@H](CCCNC(=N)N)C(N)=O)C(C)C)[C@@H](C)CC [AT385] (H-SGTFISDYSIAMDRIK([AEEA-AEEA-AEEA-γGlu-C18 diacid])QQDFVNWLLAQR-NH2; N-terminus assumed) | 43 | 70 | 70 | 43 | No antagonism | No Agonism | No antagonism
5 | CC[C@H](C)[C@H](NC(=O)[C@H](CO)NC(=O)[C@H](Cc1ccc(O)cc1)NC(=O)[C@H](CC(=O)O)NC(=O)[C@H](CO)NC(=O)[C@@H](NC(=O)[C@H](Cc1ccccc1)NC(=O)[C@@H](NC(=O)CNC(=O)[C@@H](N)CO)[C@@H](C)O)[C@@H](C)CC)C(=O)N[C@@H](C)C(=O)N[C@@H](CCSC)C(=O)N[C@@H](CC(=O)O)C(=O)N[C@@H](CCCNC(=N)N)C(=O)N[C@H](C(=O)N[C@@H](CCCCNC(=O)CCCCCCCCCCCCCCCCC(=O)O)C(=O)N[C@@H](CCC(N)=O)C(=O)N[C@@H](CCC(N)=O)C(=O)N[C@@H](CC(=O)O)C(=O)N[C@@H](Cc1ccccc1)C(=O)N[C@H](C(=O)N[C@@H](CC(N)=O)C(=O)N[C@@H](Cc1c[nH]c2ccccc12)C(=O)N[C@@H](CC(C)C)C(=O)N[C@@H](CC(C)C)C(=O)N[C@@H](C)C(=O)N[C@@H](CCC(N)=O)C(=O)N[C@@H](CCCNC(=N)N)C(N)=O)C(C)C)[C@@H](C)CC [AT393] (H-SGTFISDYSIAMDRIK(C18 diacid)QQDFVNWLLAQR-NH2; N-terminus assumed) | 33.5 | 78 | 78 | 33.5 | No antagonism | No Agonism | No antagonism
